The source of these data is ChEMBL document CHEMBL1122865 (J Med Chem, 1985).

Structures are written as SMILES.

In assay [1] the target is D(1A) dopamine receptor (Rattus norvegicus) (UniProt P18901). The assay can be described thus: Tested for its ability to inhibit rat caudate adenylate cyclase (Dopamine receptor D1) at 10 uM.
The target in assay [2] is D(2) dopamine receptor (Bos taurus) (UniProt P20288). The assay can be described thus: Ability to inhibit specific [3H]spiroperidol binding to bovine anterior pituitary homogenate, at 10 uM.
The target of assay [3] is D(1A) dopamine receptor (Rattus norvegicus) (UniProt P18901). The assay can be described thus: Tested for its ability to stimulate rat caudate adenylate cyclase (Dopamine receptor D1) at 10 uM.
The species entered for assay [4] is Oryctolagus cuniculus. As to the kind of experiment: Compound was tested for DA agonistic activity in the isolated perfused rabbit ear artery. It counts as functional. The conditions noted are these: read-out: ED50 (the source's name).
Assay [5] addresses D(2) dopamine receptor (Bos taurus) (UniProt P20288). As to the kind of experiment: Compound was tested for its ability to inhibit specific [3H]spiroperidol binding to bovine anterior pituitary homogenate, at 10 uM.
The species entered for assay [6] is Oryctolagus cuniculus. As to the kind of experiment: The compound was tested for DA agonistic activity in the isolated perfused rabbit ear artery. The conditions noted are these: read-out: ED50 (the source's name). It counts as functional.

D(2) dopamine receptor (Bos taurus), sequence (P20288 whole entry, the tested form may be a part): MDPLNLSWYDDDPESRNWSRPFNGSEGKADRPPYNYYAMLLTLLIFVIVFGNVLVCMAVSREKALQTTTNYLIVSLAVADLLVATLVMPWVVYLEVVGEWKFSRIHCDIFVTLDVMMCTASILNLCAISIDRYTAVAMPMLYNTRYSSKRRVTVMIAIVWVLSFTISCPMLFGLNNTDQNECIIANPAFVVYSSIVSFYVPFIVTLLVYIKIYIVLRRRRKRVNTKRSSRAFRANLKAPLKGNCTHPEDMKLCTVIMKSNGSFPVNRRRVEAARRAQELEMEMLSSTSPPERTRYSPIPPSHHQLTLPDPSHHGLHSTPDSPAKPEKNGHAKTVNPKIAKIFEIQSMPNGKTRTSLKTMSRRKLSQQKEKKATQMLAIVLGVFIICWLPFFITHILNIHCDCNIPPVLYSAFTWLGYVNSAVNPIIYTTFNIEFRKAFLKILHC
D(1A) dopamine receptor (Rattus norvegicus), sequence (P18901 whole entry, the tested form may be a part): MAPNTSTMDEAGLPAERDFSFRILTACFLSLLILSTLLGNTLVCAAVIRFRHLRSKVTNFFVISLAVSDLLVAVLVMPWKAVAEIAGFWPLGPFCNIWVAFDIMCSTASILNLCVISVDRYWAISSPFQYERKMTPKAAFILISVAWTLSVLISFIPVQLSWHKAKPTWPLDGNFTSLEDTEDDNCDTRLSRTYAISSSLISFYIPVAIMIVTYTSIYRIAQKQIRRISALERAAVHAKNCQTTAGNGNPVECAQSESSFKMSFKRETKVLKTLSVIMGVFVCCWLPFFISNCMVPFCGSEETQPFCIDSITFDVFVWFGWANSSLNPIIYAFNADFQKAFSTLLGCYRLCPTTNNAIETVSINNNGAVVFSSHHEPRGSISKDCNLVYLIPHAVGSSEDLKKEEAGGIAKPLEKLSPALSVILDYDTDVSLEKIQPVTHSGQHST

Usually inhibition stands for the drop in the measured response relative to a control, in per cent. Read a low inhibition as little suppression. As for `COc1ccc(CCNCCc2ccccc2)c2ccc(O)nc12`, the inhibition in assay [1] was 0%. In addition, the Displacement in assay [2] is 9%. The compound also returned a Stimulation in assay [3] of 0%.
`CCCN(CCc1ccccc1)CCc1ccc(O)c2nc(O)ccc12`: in assay [1], the inhibition was found to be 6%. Also, in assay [2], the Displacement was 72%. Further, the EC50 in the assay filed under Oryctolagus cuniculus [4] is 128 nM. The same compound registered a Stimulation in assay [3] of 0%. In addition, in assay [5], the Kb was 2020 nM.
In the case of `CCCN(CCC)CCc1ccc(O)c2c1CCC(=O)N2`, the inhibition in assay [1] worked out at 0%. Also, the Displacement in assay [2] is 40%. Also, the EC50 in the assay filed under Oryctolagus cuniculus [4] is 252 nM. In addition, the Stimulation in assay [3] turned out to be 1%. For the same compound, the Kb in assay [5] came out at 15100 nM.
`COc1ccc(CCN)c2ccc(O)nc12` yielded an inhibition in assay [1] of 1%. Besides, the Displacement in assay [2] worked out at 9%. The compound further came in with a Stimulation in assay [3] of 3%.
On to `CCCN(CCC)CCc1ccc(OC)c2nc(O)ccc12`, for which the inhibition in assay [1] amounted to 0%. Moreover, the Displacement in assay [2] turned out to be 6%. For the same compound, the Stimulation in assay [3] is 3%.
With `CCCN(CCC)CCc1ccc(O)c2[nH]c(=O)ccc12`, the inhibition in assay [1] came out at 0%. Further, the Displacement in assay [2] stood at 19%. In addition, the EC50 in the assay listed under Oryctolagus cuniculus [4] stood at 493 nM. This compound also came in with a Stimulation in assay [3] of 1%.
For `NCCc1cccc2nc(O)ccc12`, the inhibition in assay [1] was found to be 5%. Besides, the Displacement in assay [2] was 21%. In assay [3], this compound showed a Stimulation of 1%.
With `NCCc1ccc(O)c(O)c1` [DOPAMINE], in the assay listed under Oryctolagus cuniculus [6], the EC50 stood at 37 nM.
As for `Oc1ccc(CCNCCc2ccc(O)c3nc(O)ccc23)cc1`, in assay [1], the inhibition was found to be 6%. The Displacement in assay [2] came out at 42%. In addition, in the assay listed under Oryctolagus cuniculus [4], the EC50 came to 136 nM. Moreover, the Stimulation in assay [3] turned out to be 2%.
In the case of `CCCN(CCC)CCc1cccc2nc(O)ccc12`, the inhibition in assay [1] stood at 0%. Also, the Displacement in assay [2] was found to be 30%. Also, the Stimulation in assay [3] came out at 4%.
Regarding `NC1CCc2cc(O)c(O)cc2C1` (stereo not given), the EC50 in the assay listed under Oryctolagus cuniculus [6] came to 4.6 nM.
As to `CCCN(CCc1ccc(O)cc1)CCc1ccc(O)c2nc(O)ccc12`, the inhibition in assay [1] was found to be 0%. This compound registered a Displacement in assay [2] of 78%. Also, the EC50 in the assay filed under Oryctolagus cuniculus [4] was 12.3 nM. Besides, in assay [3], the Stimulation came out at 0%. This compound gave a Kb in assay [5] of 770 nM.
In the case of `NCCc1ccc(O)c2nc(O)ccc12`, in assay [1], the inhibition was determined as 1%. Also, the Displacement in assay [2] came to 56%. Moreover, the EC50 in the assay listed under Oryctolagus cuniculus [4] was 140 nM. Besides, the Stimulation in assay [3] was 27%. For the same compound, in assay [5], the Kb amounted to 4040 nM.
